According to ChEMBL document CHEMBL1201861, “Genomics of Drug Sensitity in Cancer screening data, Wellcome Trust Sanger Institute”:

Key:
[1] = system: NCI-H2171; assay: cells; type: functional, cell-based, Homo sapiens; conditions: Homo sapiens, NCI-H2171;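 note: growth inhibition of human NCI-H2171 cells, read out by a cell viability assay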
Description: SANGER: Inhibition of human NCI-H2171 cell growth in a cell viability assay.

[2] = system: NCI-H510A; assay: cells; type: functional, cell-based, Homo sapiens; conditions: Homo sapiens, NCI-H510A;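 note: growth inhibition of NCI-H510A cells, read out with a cell viability assay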
Description: SANGER: Inhibition of human NCI-H510A cell growth in a cell viability assay.

[3] = system: BL-41; assay: cells; type: functional, cell-based, Homo sapiens; conditions: Homo sapiens, BL-41;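 note: growth inhibition of human BL-41 cells, read out with a cell viability assay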
Description: SANGER: Inhibition of human BL-41 cell growth in a cell viability assay.

[4] = system: HD-MY-Z; assay: cells; type: functional, cell-based, Homo sapiens; conditions: Homo sapiens, HD-MY-Z;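 note: growth inhibition of HD-MY-Z cells, read out with a cell viability assay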
Description: SANGER: Inhibition of human HD-MY-Z cell growth in a cell viability assay.

[5] = system: TE-8; assay: cells; type: functional, cell-based, Homo sapiens; conditions: Homo sapiens, TE-8;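 note: growth inhibition of TE-8 cells, measured with a cell viability readout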
Description: SANGER: Inhibition of human TE-8 cell growth in a cell viability assay.

[6] = system: GCIY; assay: cells; type: functional, cell-based, Homo sapiens; conditions: Homo sapiens, GCIY;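 note: growth inhibition of the human GCIY cell line, read out by a cell viability assay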
Description: SANGER: Inhibition of human GCIY cell growth in a cell viability assay.

[7] = system: COLO-684; assay: cells; type: functional, cell-based, Homo sapiens; conditions: Homo sapiens, COLO-684
Description: SANGER: Inhibition of human COLO-684 cell growth in a cell viability assay.

[8] = system: DMS-153; assay: cells; type: functional, cell-based, Homo sapiens; conditions: Homo sapiens, DMS-153
Description: SANGER: Inhibition of human DMS-153 cell growth in a cell viability assay.

[9] = system: EW-16; assay: cells; type: functional, cell-based, Homo sapiens; conditions: Homo sapiens, EW-16;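 note: growth inhibition of human EW-16 cells, read out as cell viability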
Description: SANGER: Inhibition of human EW-16 cell growth in a cell viability assay.

[10] = system: MC-CAR; assay: cells; type: functional, cell-based, Homo sapiens; conditions: Homo sapiens, MC-CAR;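 note: growth inhibition of the human MC-CAR cell line, read out by a cell viability assay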
Description: SANGER: Inhibition of human MC-CAR cell growth in a cell viability assay.

[11] = system: D-542MG; assay: cells; type: functional, cell-based, Homo sapiens; conditions: Homo sapiens, D-542MG
Description: SANGER: Inhibition of human D-542MG cell growth in a cell viability assay.

[12] = system: JAR; assay: cells; type: functional, cell-based, Homo sapiens; conditions: Homo sapiens, JAR;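 note: growth inhibition of human JAR cells determined with a cell viability assay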
Description: SANGER: Inhibition of human JAR cell growth in a cell viability assay.

[13] = system: DU-4475; assay: cells; type: functional, cell-based, Homo sapiens; conditions: Homo sapiens, DU-4475
Description: SANGER: Inhibition of human DU-4475 cell growth in a cell viability assay.

[14] = system: ES6; assay: cells; type: functional, cell-based, Homo sapiens; conditions: Homo sapiens, ES6;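 note: growth inhibition of human ES6 cells, read out with a cell viability assay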
Description: SANGER: Inhibition of human ES6 cell growth in a cell viability assay.

[15] = system: HAL-01; assay: cells; type: functional, cell-based, Homo sapiens; conditions: Homo sapiens, HAL-01;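 note: growth inhibition of human HAL-01 cells, read out with a cell viability assay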
Description: SANGER: Inhibition of human HAL-01 cell growth in a cell viability assay.

[16] = system: no-10; assay: cells; type: functional, cell-based, Homo sapiens; conditions: Homo sapiens;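 note: growth inhibition of no-10 cells, read out with a cell viability assay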
Description: SANGER: Inhibition of human no-10 cell growth in a cell viability assay.

[17] = system: SU-DHL-1; assay: SANGER: Inhibition of human SU-DHL-1 cell growth in a cell viability assay.; type: functional, cell-based; conditions: Homo sapiens, SU-DHL-1
[18] = system: P31-FUJ; assay: cells; type: functional, cell-based, Homo sapiens; conditions: Homo sapiens, P31-FUJ;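 note: growth inhibition of P31-FUJ cells, read out with a viability assay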
Description: SANGER: Inhibition of human P31-FUJ cell growth in a cell viability assay.

[19] = system: NCI-H1522; assay: cells; type: functional, cell-based, Homo sapiens; conditions: Homo sapiens, NCI-H1522;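 note: growth inhibition of NCI-H1522 cells, read out with a cell viability assay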
Description: SANGER: Inhibition of human NCI-H1522 cell growth in a cell viability assay.

[20] = system: SNU-16; assay: cells; type: functional, cell-based, Homo sapiens; conditions: Homo sapiens, SNU-16;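 note: growth inhibition of human SNU-16 cells, determined with a cell viability readout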
Description: SANGER: Inhibition of human NCI-SNU-16 cell growth in a cell viability assay.

[21] = system: SK-PN-DW; assay: cells; type: functional, cell-based, Homo sapiens; conditions: Homo sapiens, SK-PN-DW;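 note: growth inhibition measured with a viability assay on these cells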
Description: SANGER: Inhibition of human SK-PN-DW cell growth in a cell viability assay.

[22] = system: RCC10RGB; assay: cells; type: functional, cell-based, Homo sapiens; conditions: Homo sapiens, RCC10RGB;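 note: growth inhibition of human RCC10RGB cells, read out by a cell viability assay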
Description: SANGER: Inhibition of human RCC10RGB cell growth in a cell viability assay.

[23] = system: C2BBe1; assay: cells; type: functional, cell-based, Homo sapiens; conditions: Homo sapiens, C2BBe1;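 note: growth inhibition of C2BBe1 cells, read out through a viability assay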
Description: SANGER: Inhibition of human C2BBe1 cell growth in a cell viability assay.

[24] = system: KGN; assay: cells; type: functional, cell-based, Homo sapiens; conditions: Homo sapiens, KGN;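 note: growth inhibition of KGN cells, read out with a cell viability assay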
Description: SANGER: Inhibition of human KGN cell growth in a cell viability assay.

[25] = system: LS-411N; assay: cells; type: functional, cell-based, Homo sapiens; conditions: Homo sapiens, LS-411N
[26] = system: NCI-H446; assay: cells; type: functional, cell-based, Homo sapiens; conditions: Homo sapiens, NCI-H446;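 note: growth inhibition of NCI-H446 cells determined by a cell viability assay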
Description: SANGER: Inhibition of human NCI-H446 cell growth in a cell viability assay.

SMILES | IC50 [1] | IC50 [2] | IC50 [3] | IC50 [4] | IC50 [5] | IC50 [6] | IC50 [7] | IC50 [8] | IC50 [9] | IC50 [10] | IC50 [13] | IC50 [14] | IC50 [15] | IC50 [16] | IC50 [17] | IC50 [18] | IC50 [20] | IC50 [21] | IC50 [22] | IC50 [23] | other results
COc1cc(N2CCN(C)CC2)ccc1Nc1ncc2c(n1)N(C)c1ccccc1C(=O)N2C | > 8 µM | > 8 µM | 3.65 µM | > 8 µM | > 8 µM | > 8 µM | > 8 µM | > 8 µM | > 8 µM | > 8 µM | > 8 µM | > 8 µM | 2.12 µM | > 8 µM | > 8 µM | > 8 µM | > 8 µM | > 8 µM | > 8 µM | > 8 µM | IC50 [11]: 2 µM; IC50 [12]: > 8 µM; IC50 [19]: > 8 µM; IC50 [24]: 2.79 µM; IC50 [25]: 7.05 µM; IC50 [26]: > 8 µM
COc1cc(-c2nn([C@H]3CC[C@H](N4CCN(C(C)=O)CC4)CC3)c3ncnc(N)c23)ccc1NC(=O)c1cc2ccccc2n1C | > 5.12 µM | 4.76 µM | 1.69 µM | 4.88 µM | 0.242 µM | 4.03 µM | > 5.12 µM | > 5.12 µM | 3.59 µM | > 5.12 µM | > 5.12 µM | 1.96 µM | 3.08 µM | 2.18 µM | > 5.12 µM | > 5.12 µM | > 5.12 µM | > 5.12 µM | > 5.12 µM | 0.757 µM | IC50 [12]: > 5.12 µM; IC50 [19]: > 5.12 µM; IC50 [24]: 0.887 µM; IC50 [25]: > 5.12 µM; IC50 [26]: > 5.12 µM
OCCCNc1cc(-c2ccnc(Nc3cccc(Cl)c3)n2)ccn1 | > 0.256 µM | > 0.256 µM | 0.0336 µM | 0.0602 µM | 0.0238 µM | > 0.256 µM | 0.0949 µM | > 0.256 µM | 0.0328 µM | 0.121 µM | 0.14 µM | 0.00878 µM | 0.066 µM | 0.0148 µM | 0.211 µM | > 0.256 µM | 0.136 µM | 0.0902 µM | 0.111 µM | 0.154 µM | IC50 [12]: 0.0818 µM; IC50 [19]: > 0.256 µM; IC50 [24]: 0.0105 µM; IC50 [25]: 0.0379 µM; IC50 [26]: > 0.256 µM
Cc1ccc(-c2c(C(=O)CCl)n(CCCO)c3ncnc(N)c23)cc1 | > 4 µM | > 4 µM | > 4 µM | 2.5 µM | 1.97 µM | > 4 µM | > 4 µM | > 4 µM | > 4 µM | > 4 µM | > 4 µM | > 4 µM | > 4 µM | > 4 µM | > 4 µM | > 4 µM | > 4 µM | > 4 µM | > 4 µM | 2.74 µM | IC50 [12]: > 4 µM; IC50 [19]: > 4 µM; IC50 [24]: > 4 µM; IC50 [25]: > 4 µM; IC50 [26]: > 4 µM
C#Cc1cccc(Nc2ncnc3cc(OCCOC)c(OCCOC)cc23)c1 [ERLOTINIB] | > 2 µM | > 2 µM | > 2 µM | > 2 µM | > 2 µM | > 2 µM | > 2 µM | > 2 µM | > 2 µM | > 2 µM | > 2 µM | > 2 µM | > 2 µM | > 2 µM | > 2 µM | > 2 µM | > 2 µM | > 2 µM | > 2 µM | > 2 µM | IC50 [11]: > 2 µM; IC50 [24]: > 2 µM; IC50 [25]: > 2 µM; IC50 [26]: > 2 µM
COc1cc2ncn(-c3cc(OCc4ccccc4S(C)(=O)=O)c(C#N)s3)c2cc1OC [GSK-319347A] | > 5 µM | > 5 µM | > 5 µM | > 5 µM | > 5 µM | > 5 µM | > 5 µM | > 5 µM | > 5 µM | > 5 µM | > 5 µM | > 5 µM | > 5 µM | > 5 µM | > 5 µM | > 5 µM | > 5 µM | > 5 µM | > 5 µM | > 5 µM | IC50 [11]: > 5 µM; IC50 [12]: > 5 µM; IC50 [19]: > 5 µM; IC50 [24]: > 5 µM; IC50 [25]: > 5 µM; IC50 [26]: > 5 µM
COc1cc2ncn(-c3cc(OCc4ccccc4C(F)(F)F)c(C(N)=O)s3)c2cc1OC [GW843682X] | > 0.256 µM | 0.0166 µM | 0.0109 µM | 0.0663 µM | 0.00589 µM | 0.048 µM | 0.0954 µM | > 0.256 µM | 0.0133 µM | 0.0761 µM | 0.08 µM | 0.00619 µM | 0.0808 µM | 0.0207 µM | 0.0943 µM | > 0.256 µM | 0.0205 µM | 0.0387 µM | > 0.256 µM | > 0.256 µM | IC50 [12]: 0.0568 µM; IC50 [19]: > 0.256 µM; IC50 [24]: 0.0332 µM; IC50 [25]: 0.008 µM; IC50 [26]: 0.012 µM
CC(=O)O[C@H]1C(=O)[C@@]2(C)[C@H]([C@H](OC(=O)c3ccccc3)[C@]3(O)C[C@H](OC(=O)[C@H](O)[C@@H](NC(=O)c4ccccc4)c4ccccc4)C(C)=C1C3(C)C)[C@]1(OC(C)=O)CO[C@@H]1C[C@@H]2O [PACLITAXEL] | > 0.102 µM | 0.00665 µM | 0.00934 µM | 0.0116 µM | 0.00117 µM | > 0.102 µM | 0.0291 µM | > 0.102 µM | 0.00694 µM | 0.0233 µM | 0.0424 µM | 0.0959 µM | > 0.102 µM | 0.00362 µM | > 0.102 µM | > 0.102 µM | 0.0101 µM | 0.0111 µM | > 0.102 µM | > 0.102 µM | IC50 [12]: 0.0295 µM; IC50 [19]: > 0.102 µM; IC50 [24]: 0.00712 µM; IC50 [25]: 0.00717 µM; IC50 [26]: 0.0211 µM
N[C@@H](CSC(c1ccccc1)(c1ccccc1)c1ccccc1)C(=O)O [S-TRITYL-L-CYSTEINE] | > 5.12 µM | 1.38 µM | 1.64 µM | 2.24 µM | 0.722 µM | 1.82 µM | 2.08 µM | > 5.12 µM | 1.62 µM | 1.21 µM | 1.51 µM | > 5.12 µM | 2.42 µM | 1.96 µM | > 5.12 µM | > 5.12 µM | > 5.12 µM | 1.35 µM | > 5.12 µM | > 5.12 µM | IC50 [12]: 0.941 µM; IC50 [19]: > 5.12 µM; IC50 [24]: 0.622 µM; IC50 [25]: 1.52 µM; IC50 [26]: 2.59 µM
CCN(CC)CCNC(=O)c1c(C)[nH]c(/C=C2\C(=O)Nc3ccc(F)cc32)c1C [SUNITINIB] | > 8 µM | > 8 µM | 2.91 µM | 5.17 µM | 2.37 µM | > 8 µM | > 8 µM | > 8 µM | 2.14 µM | > 8 µM | 4.37 µM | 0.981 µM | 2.06 µM | > 8 µM | 4.8 µM | > 8 µM | 1.46 µM | > 8 µM | > 8 µM | > 8 µM | IC50 [12]: 3.99 µM; IC50 [19]: > 8 µM; IC50 [24]: 2.6 µM; IC50 [25]: > 8 µM; IC50 [26]: > 8 µM
